This note sets out measurements from patent publication US20240366589A1, “NHE3-BINDING COMPOUNDS AND METHODS FOR INHIBITING PHOSPHATE TRANSPORT” (Ardelyx, Inc., priority 2013, published 2024).

The target of assay [1] is T1, Rat NHE3 (Rattus norvegicus, UniProt P26433).
T1 construct: expressed in transfected cells; host or cells: Opossum kidney (OK) cells (ATCC), electroporation
Nature of the assay: Cell-based NHE3 activity under prompt conditions (OK cells, BCECF pH recovery), rat NHE3. The settings on record: Table E5; 001 free base, 002-005 dihydrochloride salt. Summed up: (§1)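 Cells (OK line, electroporated with rat or human NHE3) are washed in NaCl-HEPES pH 7.4, then dye-loaded 30 min at room temperature with 5 μM BCECF-AM in NH4Cl buffer.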

Assay [2] addresses T2, Human NHE3 (Homo sapiens, UniProt P48764).
T2 construct: expressed in transfected cells; host or cells: Opossum kidney (OK) cells (ATCC), electroporation
T2 sequence (P48764 26-834): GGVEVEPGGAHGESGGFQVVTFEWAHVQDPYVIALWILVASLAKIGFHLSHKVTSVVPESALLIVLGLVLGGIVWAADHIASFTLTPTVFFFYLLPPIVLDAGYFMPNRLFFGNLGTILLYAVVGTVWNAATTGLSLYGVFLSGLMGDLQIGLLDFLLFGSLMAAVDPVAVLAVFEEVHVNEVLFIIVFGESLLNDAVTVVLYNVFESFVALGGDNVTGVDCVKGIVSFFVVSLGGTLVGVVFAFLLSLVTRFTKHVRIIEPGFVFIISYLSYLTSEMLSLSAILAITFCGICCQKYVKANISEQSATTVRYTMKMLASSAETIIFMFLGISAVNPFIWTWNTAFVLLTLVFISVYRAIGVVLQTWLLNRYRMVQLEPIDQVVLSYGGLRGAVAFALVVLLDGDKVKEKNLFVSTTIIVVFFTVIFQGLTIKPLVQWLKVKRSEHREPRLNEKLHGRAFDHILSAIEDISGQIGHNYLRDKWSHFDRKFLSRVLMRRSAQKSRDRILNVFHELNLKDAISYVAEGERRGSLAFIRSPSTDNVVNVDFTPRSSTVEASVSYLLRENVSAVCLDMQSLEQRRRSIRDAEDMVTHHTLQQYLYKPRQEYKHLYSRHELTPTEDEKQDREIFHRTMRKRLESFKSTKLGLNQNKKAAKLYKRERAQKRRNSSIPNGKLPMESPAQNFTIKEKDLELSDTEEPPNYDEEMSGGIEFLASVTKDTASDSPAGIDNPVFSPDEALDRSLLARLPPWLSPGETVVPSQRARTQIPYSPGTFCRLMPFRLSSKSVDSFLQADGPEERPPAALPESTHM
As to the kind of experiment: Cell-based NHE3 activity under prompt conditions (OK cells, BCECF pH recovery), human NHE3. The settings on record: for Human NHE3 pIC50 Prompt: Table E5, 001 free base, 002-005 dihydrochloride salt; for pIC50 Prompt: Table E6, NHE3 species not stated. Summed up:
as §1

The target in assay [3] is T2, Human NHE3. Nature of the assay: Cell-based NHE3 activity under persistent conditions (60 min incubation, washout), human NHE3. The settings on record: Table E5; dihydrochloride salt.
Assay [4] has as its system absorption of sodium from the intestinal lumen. Nature of the assay: Inhibition of intestinal sodium absorption: urinary sodium (uNa) 16 h after single oral dose in rats. It counts as in vivo, rat. The note with it: for UNa (%): urinary Na excretion as % of vehicle. Summed up: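 Eight-week-old Sprague-Dawley rats (n=6) given single oral gavage of compound or water vehicle in the late afternoon, then kept in metabolic cages with chow and water ad libitum. Urine collected over 16 h; sodium quantified by ion chromatography and expressed as % of vehicle mean, compared by one-way ANOVA with Dunnett's test.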

T1 sequence (P26433 29-831): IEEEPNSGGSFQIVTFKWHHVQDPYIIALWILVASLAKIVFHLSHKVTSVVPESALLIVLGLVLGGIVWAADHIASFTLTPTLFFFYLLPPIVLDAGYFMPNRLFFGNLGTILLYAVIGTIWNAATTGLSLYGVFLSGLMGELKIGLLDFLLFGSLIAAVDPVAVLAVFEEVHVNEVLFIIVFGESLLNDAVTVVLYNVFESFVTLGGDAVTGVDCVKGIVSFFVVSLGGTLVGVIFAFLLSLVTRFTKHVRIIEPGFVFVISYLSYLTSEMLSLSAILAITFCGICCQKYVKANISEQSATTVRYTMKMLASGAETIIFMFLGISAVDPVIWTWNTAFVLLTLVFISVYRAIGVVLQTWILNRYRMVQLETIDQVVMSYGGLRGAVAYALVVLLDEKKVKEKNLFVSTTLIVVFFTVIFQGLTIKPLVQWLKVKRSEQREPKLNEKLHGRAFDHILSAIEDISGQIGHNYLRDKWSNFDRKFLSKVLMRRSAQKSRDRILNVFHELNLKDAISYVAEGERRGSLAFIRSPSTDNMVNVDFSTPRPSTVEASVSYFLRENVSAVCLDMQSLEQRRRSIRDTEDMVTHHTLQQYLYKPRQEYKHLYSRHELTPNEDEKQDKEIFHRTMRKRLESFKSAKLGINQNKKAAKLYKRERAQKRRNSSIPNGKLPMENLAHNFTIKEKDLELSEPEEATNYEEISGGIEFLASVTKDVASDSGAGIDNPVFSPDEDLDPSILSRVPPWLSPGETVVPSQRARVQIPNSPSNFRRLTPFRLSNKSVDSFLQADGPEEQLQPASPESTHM

As for `CN1Cc2c(Cl)cc(Cl)cc2[C@H](c2cccc(S(=O)(=O)NCCOCCOCCNC(=O)NCCCCNC(=O)NCCOCCOCCNS(=O)(=O)c3cccc([C@@H]4CN(C)Cc5c(Cl)cc(Cl)cc54)c3)c2)C1` [Cpd 002], the “Rat NHE3 pIC50 Prompt” value in assay [1] amounted to 8. Also, in assay [2], the “Human NHE3 pIC50 Prompt” value is 8 and the “pIC50 Prompt” value was 8. The “Human NHE3 pIC50 Persistent” value in assay [3] amounted to 8.2. Moreover, the “UNa (%)” value in assay [4] (single oral dose 1 mg/kg) is 11 @ 1 mg/kg %.
Turning to `CN1Cc2c(Cl)cc(Cl)cc2[C@@H](c2cccc(S(=O)(=O)NCCOCCOCCNC(=O)NCCCCNC(=O)NCCOCCOCCNS(=O)(=O)c3cccc([C@H]4CN(C)Cc5c(Cl)cc(Cl)cc54)c3)c2)C1` [Cpd 004], the “Rat NHE3 pIC50 Prompt” value in assay [1] came to 7.3. Moreover, in assay [2], the “Human NHE3 pIC50 Prompt” value is on record as 7.3 and the “pIC50 Prompt” value is listed as 7.3. Further, the “Human NHE3 pIC50 Persistent” value in assay [3] was determined as 5.6. In assay [4] (in words), the “effect on urinary Na (UNa)” value was “no significant effect”. Besides, in assay [4] (single oral dose 10 mg/kg), the “UNa (%)” value is on record as 68 @ 10 mg/kg %.
